This experiment has as its target T1, Regulator of G-protein signaling 16 (Homo sapiens, UniProt O15492).
T1 sequence (O15492 whole entry): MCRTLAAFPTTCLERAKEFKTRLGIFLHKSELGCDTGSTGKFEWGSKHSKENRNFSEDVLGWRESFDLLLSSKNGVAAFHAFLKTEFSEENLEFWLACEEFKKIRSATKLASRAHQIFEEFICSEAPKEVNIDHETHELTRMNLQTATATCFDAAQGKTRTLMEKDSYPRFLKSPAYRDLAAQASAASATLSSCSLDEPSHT
Nature of the experiment: small molecules altering RGS16 interaction with Galphao – biochemical, multiplexed bead flow cytometry, SAR compounds, SAR follow-up (AID 2298). For orientation: A flow cytometer gives signals particle by particle.

By EC50 is commonly meant the concentration that produces a half-maximal response. As for `CN1CCN(C2=C(Cl)C(=O)C(c3cnc(N4CCCCC4)s3)=C(Cl)C2=O)CC1`, the EC50 was determined as 0.027 µM.

On to `CCN=c1scc(C)n1N=Cc1ccc(O)c(O)c1O`, for which the midpoint of the response, the EC50, lay at 1.05 µM.

Regarding `CCN(CC)S(=O)(=O)c1cccc(C(=O)NN=Cc2ccc(O)c(O)c2O)c1`, it took 0.59 µM to reach a half-maximal effect (EC50).

In the case of `Cc1[nH]n(-c2ccccc2)c(=S)c1C=NCCCN=Cc1c(C)[nH]n(-c2ccccc2)c1=S`, the midpoint of the response, the EC50, lay at 0.405 µM.

Compound `Cc1cccc(N2CCN(C(=O)COc3nsc4nc(C)cc(C)c34)CC2C)c1` (configuration not stated) registered an EC50 of 1.43 µM.

Consider `Cc1cccc(N2CCN(C(=O)Cn3ccc4nc(C)cc(C)c4c3=O)CC2C)c1` (configuration not stated) [2,4-dimethyl-6-[2-[3-methyl-4-(3-methylphenyl)piperazin-1-yl]-2-oxidanylidene-ethyl]-1,6-naphthyridin-5-one], for which the EC50 is greater than 30 µM.

For the compound `Cc1cc(C)c2c(=O)n(CC(=O)N3CCN(c4ccccc4)CC3)ccc2n1` [2,4-dimethyl-6-[2-oxidanylidene-2-(4-phenylpiperazin-1-yl)ethyl]-1,6-naphthyridin-5-one], the EC50 turned out to be 0.018 µM.

As for `Cc1cc(C)c2c(n1)CCN(CC(=O)N1CCN(c3ccccc3)CC1)C2=O` [2,4-dimethyl-6-[2-oxidanylidene-2-(4-phenylpiperazin-1-yl)ethyl]-7,8-dihydro-1,6-naphthyridin-5-one], the concentration giving a half-maximal response (EC50) was greater than 30 µM.

As for `O=c1c2ccccc2sn1-c1ccc(S(=O)(=O)N2CCCC2)cc1` [2-(4-pyrrolidin-1-ylsulfonylphenyl)-1,2-benzothiazol-3-one], a half-maximal effect (EC50) was put at 0.027 µM.

On to `Cc1cccc(N2CCN(C(=O)Cn3sc4nc(C)cc(C)c4c3=O)CC2C)c1` (configuration not stated) [2-[2-keto-2-[3-methyl-4-(m-tolyl)piperazino]ethyl]-4,6-dimethyl-isothiazolo[5,4-b]pyridin-3-one], for which the EC50 amounted to 0.11 µM.

Regarding `Cc1cccc(N2CCN(C(=O)COc3noc4nc(C)cc(C)c34)CC2C)c1` (configuration not stated) [2-[(4,6-dimethyl-[1,2]oxazolo[5,4-b]pyridin-3-yl)oxy]-1-[3-methyl-4-(3-methylphenyl)piperazin-1-yl]ethanone], the concentration for a half-maximal effect (EC50) is greater than 30 µM.

`O=c1c2ccccc2sn1-c1ccccc1` [2-phenyl-1,2-benzothiazol-3-one]: the EC50 was greater than 30 µM.

`CCN(CC)S(=O)(=O)c1cccc(-c2n[nH]c(=S)n2N=Cc2ccc(C(=O)OC)cc2)c1` [4-[(E)-[3-[3-(diethylsulfamoyl)phenyl]-5-thioxo-1H-1,2,4-triazol-4-yl]iminomethyl]benzoic acid methyl ester] gave a 50% effective concentration (EC50) of 0.94 µM.

Compound `NS(=O)(=O)c1ccc(N=NCc2ccc(O)c(O)c2O)c([N+](=O)[O-])c1` [4-[[(E)-(2,3-dihydroxy-4-oxo-1-cyclohexa-2,5-dienylidene)methyl]hydrazo]-3-nitrobenzenesulfonamide] yielded an EC50 of 0.029 µM.

Turning to `CN=c1scc(C)n1N=Cc1ccc(O)c(O)c1O` [(4E)-2,3-dihydroxy-4-[[(4-methyl-2-methylimino-1,3-thiazol-3-yl)amino]methylidene]cyclohexa-2,5-dien-1-one], the EC50 amounted to 0.511 µM.

For the compound `Cc1[nH]n(-c2ccccc2)c(=S)c1/C=N/c1cccc([N+](=O)[O-])c1` [(4E)-5-methyl-4-[(3-nitroanilino)methylene]-2-phenyl-2-pyrazoline-3-thione], the EC50 turned out to be 0.046 µM.

`Cc1cccc(N2CCN(C(=O)CN3CCc4nc(C)cc(C)c4C3=O)CC2C)c1` (configuration not stated) [KUC103675N] came in with a concentration giving a half-maximal response (EC50) greater than 30 µM.

In turn, `CC(=O)OCCCNc1cc(Sc2nc3ccccc3s2)c2nonc2c1[N+](=O)[O-]` [MLS000521052] yielded a concentration giving a half-maximal response (EC50) of 0.272 µM.

For `Cc1cc(Cl)ccc1/N=c1/ssnc1Cl` [MLS000539990], the concentration giving a half-maximal response (EC50) turned out to be 0.053 µM.

Take `O=C1C(Cl)=C(N2CCCCC2)C(=O)C(Cl)=C1c1cnc(N2CCCCC2)s1` [MLS000550549]: the response was half-maximal at 0.121 µM (EC50).

Consider `CCC(=O)NC(c1ccc(C)cc1)c1cc([N+](=O)[O-])c2cccnc2c1O` (configuration not stated) [MLS000553854], for which the 50% effective concentration (EC50) turned out to be 5.22 µM.

Consider `CCOc1ccccc1-c1c2cc(O)c(=O)cc-2oc2cc(O)c(O)cc12` [MLS000578271], for which the EC50 (inactive by the depositor's call) is 3.68 µM.

As to `COc1ccc(C2=CC(=O)C=CC2=O)cc1` [MLS001029846], it took 0.151 µM to reach a half-maximal effect (EC50).

As to `O=C(COc1ccccc1C(=O)NN=Cc1ccc(O)c(O)c1)NN=Cc1ccc(O)c(O)c1` [N''-[(Z)-(3-hydroxy-4-oxo-1-cyclohexa-2,5-dienylidene)methyl]-2-[2-[[(Z)-(3-hydroxy-4-oxo-1-cyclohexa-2,5-dienylidene)methyl]hydrazo]-2-oxoethoxy]benzohydrazide], a half-maximal effect (EC50) was put at 0.116 µM.

`CC1(C)OC(=O)C(=Cc2ccc(-c3ccc(S(N)(=O)=O)cc3)o2)C(=O)O1` [SMR000273939] displayed an EC50 of 3.51 µM.

In turn, `O=C(Cc1csc(N2CCOCC2)n1)NN=Cc1ccc(O)c(O)c1O` [SMR000369439] had a concentration giving a half-maximal response (EC50) of 0.822 µM.

As for `Nc1c(C(=O)NCC2CCCO2)sc2nc3c(c(-c4ccco4)c12)CC/C3=C/c1ccco1` (configuration not stated) [UNM-0000305796], the concentration for a half-maximal effect (EC50) is greater than 30 µM.
